Measured values as given in a melting point compilation (Tetko et al.; mined from patent text by program, amines drawn as free bases though some values may be those of a salt).

SMILES | melting point
CCC(CC)Oc1cc(C)nc(Oc2c(C)cc(C)cc2C)c1[N+](=O)[O-] | 106 to 109 °C
CCCCCCCCCCCCCc1c(C(F)(F)F)noc1NS(=O)(=O)c1ccccc1 | 89 °C
N#CSc1sc(NC(=O)c2cccc(C(F)(F)F)c2)nc1C(F)(F)F | 167 to 168 °C
FC(F)(F)c1ccc(-c2cc(C(F)(F)F)n3cnc(I)c3n2)cc1 | 141 °C
Cc1nc(C)c(Cl)c(NCc2nccc(SCCCCSCc3ccncc3)c2C)n1 | 104 to 106 °C
COC(=O)c1c(N)ncn1C1c2ccccc2CCC1(C)C (stereo unspecified) | 193 to 195 °C
CCn1cc(C(=O)O)c(=O)c2cc(F)c(N3C[C@@H](N)[C@@H]3C)cc21 (relative stereo) | 232 to 235 °C
CCOC(=O)/C=C/c1cccc(C(F)(F)F)c1 | 40 to 41 °C
CCOC(=O)c1ccc(NC(=O)N2CCc3cc(SC)c(C(F)(F)F)cc32)cc1 | > 200 °C
O=c1[nH]c2cccnc2n1-c1ccc2c(c1)COC2 | 243 °C
O=C(NCCCBr)c1cnccc1C(F)(F)F | 61 to 63 °C
c1ccc2[nH]c(Cn3ccnc3)nc2c1 | 198 to 200 °C
N#Cc1ccc(NC2CCN(Cc3cc(F)cc(C(F)(F)F)c3)CC2)nn1 | 151 °C
COC(=O)C=Cc1ccc(-n2c(C)ccc2C)cc1 | 73 to 75 °C
CCOC(=O)C1=COc2cc(C(C)(C)C)c(O)cc2O1 | 222 °C
COc1cccc2c1CC(=O)CO2 | 53 to 54 °C
Clc1ccc(NC2=NCCN2)c(Cl)c1 | 138 to 139 °C
C#CCn1ccc(CO)c1C#N | 65 °C
CCOC(=O)C1=C(C)Nc2nc(N3CCOCC3)nc(N3CCOCC3)c2C1c1cccc2nonc12 (stereo unspecified) | 234 °C
CN1CCCC2(OCCO2)C1Cc1cccc2[nH]ccc12 (stereo unspecified) | 181 to 186 °C
CC(=NOCc1ccc(Cl)s1)C1=C(O)CC(C2CCCSC2)CC1=O (stereo unspecified) | 154 to 155 °C
CC(=O)Nc1ccc(C=CC2=NNC(=O)CC2C)cc1 (stereo unspecified) | 206 to 207 °C
CC(C)C(C(=O)O)c1ccc(OC(F)F)c([N+](=O)[O-])c1 (stereo unspecified) | 88 to 90 °C
CCC(COC(C)=O)Nc1c(-c2c(F)cc(F)cc2F)c(Cl)nc2ncnn12 (stereo unspecified) | 39 to 42 °C
COc1nc(C(F)(F)F)cc(=O)n1-c1ccc(Cl)c(OC(C)C)c1 | 55 to 58 °C
CC=CC(=O)c1c(CCC)n(Cc2ccccc2Cl)c2cc(C(N)=O)ccc12 | 186 °C
O=S(=O)(Nc1cccc2cc(C3=NCCS3)[nH]c12)c1cccs1 | 189 to 190 °C
Nc1cnc(Cl)c(Cl)c1 | 110 to 113 °C

SMILES | melting point
Cc1c(C)c2c(c(C)c1N)C(c1cccnc1)C(C)(C)O2 (stereo unspecified) | 130 to 131 °C
O=C(c1ccc([N+](=O)[O-])cc1)N1CCN(c2ccncc2)CC1 | 158 to 160 °C
O=C(Nc1cn2cc(Cl)ccc2n1)c1ccc(-n2cccn2)cc1 | 287 to 289 °C
CC#CCCCn1ncc2c(N)c3c(nc21)CN(CCC)C3=O | 168 to 170 °C
COC(=O)c1cnn(-c2ccc(Cl)cc2Cl)c1N | 143 to 145 °C
CCOC(=O)c1csc(C)c1N(CC)c1nc(C)cc(C)n1 | 99 to 100 °C
CCc1cc(N)cc(CC)n1 | 133 to 137 °C
O=CN1CCC23CC(=O)CCC2C1Cc1cccc(O)c13 (stereo unspecified) | 260 to 262 °C
CCc1cccc2c(O)cnnc12 | 160 to 161 °C
CCOC(=O)C(=Cc1cccc([N+](=O)[O-])c1)C(C)=O | 103 to 106 °C
Cn1c(CO)nc2cnccc21 | 285 to 290 °C
COc1ccc2c(=O)c(C=O)coc2c1 | 188 to 190 °C
CN(c1cccnc1S(N)(=O)=O)S(=O)(=O)CF | 160 to 162 °C
CC(C)(C)c1ccc(N)c([N+](=O)[O-])c1 | 107 to 108 °C
O=C(NC1CCC(CCN2CCC(c3cccc4c3CCO4)CC2)CC1)C1CCCO1 (racemic) | 160 °C
C=CCN(CCC)C1COc2cccc(O)c2C1 (stereo unspecified) | 78 to 80 °C
CC(C)N(C(=O)CC=C1CSC(N)=N1)c1ccc(Cl)cc1 | 145 to 147 °C
CC1(C)OCCC2CC(=O)N21 (stereo unspecified) | 60 to 61 °C
Nc1nc(Cc2cccs2)no1 | 132 to 133 °C
CN(N)c1cnn(-c2ccccc2)c(=O)c1Cl | 128 to 130 °C
Cc1cc(I)ccc1Nc1c(-c2nnn[nH]2)ccc(F)c1F | 83.4 to 88.7 °C
CCOC(=O)N1C(=S)NC(C)=C(C(=O)OC(C)C)C1c1cccc([N+](=O)[O-])c1 (single isomer, unassigned; (-)) | 120 to 122 °C
CCS(=O)(=O)N1CCSc2ccccc2C1 | 78 to 80 °C
O=C(O)COc1ccc(C(=O)O)c(Cl)c1Cl | > 250 °C
Cc1nc(NCCCO)c([N+](=O)[O-])c(N2CCc3ccccc3CC2)n1 | 104 to 108 °C
Cn1c2ncccc2c(=O)n2nccc12 | 249 °C
O=S1(=O)N=CN(C2CC2)c2cccc(F)c21 | 156 to 157 °C

More lines, now with the values ahead:

melting point | SMILES
126 to 128 °C | c1cc2c3c(cccc3c1)C(NOCCCCn1ccnc1)=N2
166 to 168 °C | CC(c1ccccc1)C(C(=O)c1ccccc1)n1cncn1 (stereo unspecified)
198 to 200 °C | COc1ccc(C(=O)N2c3ccccc3C(n3c4ccccc4c4ccccc43)CC2CCCCCN(C)C)cc1OC (stereo unspecified)
161 °C | CSc1ccc(C(C)=Cc2ccc3ccccc3c2)cc1
101 to 105 °C | CCOC(=O)C(CC)Oc1ccc(-c2nc(-c3ccc(OC(CC)C(=O)OCC)cc3O)nc(-c3ccc(OC(CC)C(=O)OCC)cc3O)n2)c(O)c1 (stereo unspecified)
175 to 176 °C | COc1ccc(-c2nn(Cc3ccc(Cl)cc3)c(=O)cc2-c2ccncc2)cc1
220 to 222 °C | CS(=O)(=O)c1ccc(C2=C(c3ccc(-c4ccsc4)cc3)C(=O)OC2)cc1
104 to 107 °C | CSc1c(C(Cc2ccc(Cl)cc2)C(=O)O)ccc2c3ccccc3n(Cc3ccc(Cl)cc3)c12 (stereo unspecified)
111 to 113 °C | CCc1c(-c2ccc(OCc3ccccc3)cc2)c2cc(COC)c3cccc1n32
192 to 193 °C | C#Cc1ccc(-c2c(C)nnc(OC)c2-c2c(F)cc(OC)cc2F)cc1
186 to 188 °C | CCN1C(=O)c2cccnc2Nc2cccc(C)c21
148 to 149 °C | CCn1nc(-c2ccc(F)cc2)c(-c2ccncc2)c1C(=O)N(C)Cc1ccccc1
170 °C | Cc1cccc(-c2c[nH]nc2-c2ccnc(-c3ccc(OCC(=O)N4CCOCC4)cc3)c2)n1
228 to 229 °C | CCOC(=O)Oc1c(OC)cc(C=CC(=O)Nc2cnc3c(C)cc(C)cc3c2-c2ccccc2Cl)cc1OC
88 to 88.5 °C | COc1cc([N+](=O)[O-])ccc1-c1cccc(C(=O)OC(C)(C)C)c1
229 °C | COC(=O)c1cc(OC)c(OCc2ccccc2)c(C23CC4CC(CC(C4)C2)C3)c1
58 to 61 °C | CCOC(=O)CSc1nccc(NCCc2ccc(Cl)cc2)n1
91 to 94 °C | CCCCCCCCOc1ccc2c(c1OCCCCCCCC)C(=O)c1ccccc1C2=O
90 to 92.5 °C | Cc1ccccc1C(=O)c1cccn1C
220 to 222 °C | Cc1nc(NC(CO)C(C)SCc2ccccc2)c2nc(-c3ccccc3)cc-2[nH]1 (stereo unspecified)
183 to 184 °C | CS(=O)(=O)c1ccc(-c2nn3c4c(oc3c2-c2ccc(F)cc2)CCCC4)cc1
453 °C | Nc1ccc(-c2c(-c3ccccc3)c(-c3ccccc3)c(-c3ccc(N)cc3)c(-c3ccccc3)c2-c2ccccc2)cc1
173 to 175 °C | CCCOC(=O)c1ccc(C(=O)NNC(=O)c2ccc(C(=O)OCCC)cc2)cc1

melting point | SMILES
143 to 144 °C | CSc1c(CC(C)(C)C(=O)O)n(Cc2ccc(Cl)cc2)c2ccc(C(C)C)cc12
105 to 107 °C | COc1ccc2c(c1)c(CC(=O)N(C(=O)NC1CCCCC1)C1CCCCC1)c(C)n2-c1ncnc2cc(Cl)ccc12
247 to 249 °C | CCCOc1ccccc1-c1nc2nc(SC)nnc2c(=O)[nH]1
107 to 108 °C | CCOC(=O)/C=C/c1nc(-c2ccccc2)oc1COc1ccc(OCc2nc(-c3ccccc3)oc2C)cc1
180 °C | CCNC(=O)CN(c1c(Cc2c(F)cccc2F)cccc1OC)S(=O)(=O)c1ccc(OC)c(OC)c1
95 to 96 °C | Cc1ccc(-c2nc(COc3ccc(CCCn4ccnc4)cc3Cl)co2)s1
292 to 293 °C | CCCc1nn(C)c2c(=O)[nH]c(Cc3ccc(C(=O)O)cc3)nc12
143 to 144 °C | c1ccc(-c2cn3ccsc3n2)cc1
135 to 138 °C | CC(Oc1cnn(-c2ccc(Cl)cc2)c(=O)c1Cl)c1ccc(Cl)cc1 (stereo unspecified)
227 to 228 °C | O=C(Nc1ccc(Cl)c(Cl)c1)c1c(O)c2ccccc2oc1=O
110 °C | CSc1ccc(C(=O)NC[C@H]2O[C@@H]2c2ccccc2)cc1 (racemic)
179 to 180 °C | CCCc1cc(Cl)c2oc(Cc3ccc(OCC(=O)O)cc3)c(C)c2c1O
235 to 236 °C | COc1ccc(Cc2ncc(C(=O)O)c3cc(OC)c(OC)cc23)cc1OC
124 to 126 °C | Cc1noc(NS(=O)(=O)c2ccccc2)c1-c1ccccc1
< 270 °C | CC(C)(C)[Si](C)(C)Oc1ccc2cc3c(cc2c1)C(=O)c1cc2ccc(O[Si](C)(C)C(C)(C)C)cc2cc1C3=O
128 °C | COCOc1ccc(C=O)c(OCc2ccc(Cl)cc2Cl)c1C
124 to 125 °C | CCOC(=O)Cn1nc2ccc(OCCCN3CCC(OC(c4ccccc4)c4ccccc4)CC3)nn2c1=O
310 °C | O=C1c2c(Cl)cccc2-c2n[nH]c3cccc1c23
223 to 224 °C | Clc1ccc(N2CCN(Cc3n[nH]c4ccccc34)CC2)cc1
99 to 101 °C | O=C(Nc1n[nH]c(=S)s1)NC(Cc1ccccc1)C(=O)NCc1cccnc1 (stereo unspecified)
50 to 51 °C | COCCCOc1cc(CBr)ccc1OC
167 to 169 °C | CCC(C)C(CO)NC(=O)CC(O)C(CC(C)C)NC(=O)C(Cc1cscn1)NC(=O)C(Cc1cccc2ccccc12)NC(=O)OCc1ccccc1 (mixture of isomers)
173 to 174 °C | CC(C)C1=NC(NC(=O)CCc2ccc(Cl)cc2Cl)C(=O)N(C)c2ccccc21 (stereo unspecified)
